In experiment [1] the test system is HEK293-type cells. The experiment in a line: Cellular DNA content by Vybrant staining and flow cytometry of cultured HEK293-type cells. The class given is cell-based, human. Conditions: ascorbic acid 5 µg/ml, 24 hrs of culture, versus culture in the absence of ascorbic acid. The procedure:
HEK293-type cells were taken from a working cell bank and were cultured in an appropriate tissue culture vessel in an appropriate tissue culture medium both known by a person skilled in the art. They were expanded at appropriate conditions, such 37° C., 5% CO2. Cell growth and density was monitored daily. One day after cellular confluency was reached the cells were harvested by methods known by a person skilled in the art. The harvested HEK293-type cells were diluted in tissue culture medium and reseeded in an appropriate tissue culture vessel in and appropriate tissue culture medium. To one set of HEK293-type cells ascorbic acid was added at a final concentration of 5 µg/ml. After 24 hrs of culture, the cells were harvested and stained for DNA content by Vybrant (Invitrogen) following the manufacturers protocols. The cells were analyzed by fluorescence on a fluorescence activate cell analyzer (Beckman-Coulter Cytomics FC500).
In general terms: Flow cytometry measures light scatter and fluorescence of single cells or particles in a stream.

For experiment [2], the system named is HEK293-type cells. The experiment in a line: Production (encapsidation) of the fully deleted helper virus independent Adenoviral vector fdhiAdGFP, read out as GFP-expressing cells after infection with supernatant. The class given is cell-based, human. An excerpt: In the present example, the use of ascorbic acid composition exemplified by its used for the production of DNA virus, such as, but not limited to, a fully deleted helper virus independent Adenoviral vector. The vector production systems is comprised of three components (as exemplified in FIG. 1): (i) The GreVac module is packaged into the vector. It carries an expression cassette for a transgene, such as the green fluorescent protein, (cytomegalovirus immediate early promotor/enhancer / transgene / human growth hormone poly-adenylation sequence) flanked by ITRs and Ψ sequences, and is called fdhiAdGFP. […]
HEK293-type cells were taken from the working cell bank and were cultured in an appropriate tissue culture vessel in an appropriate tissue culture medium both known by someone experienced in the art. […] Cell growth and density were monitored daily by light microscopy. […]
To measure the efficiency of encapsidation, HEK293-type cells in culture were infected with defined volumes of the Adenoviral vector containing supernatants. […] Then they were harvested and examined for the extent of green fluorescence on a fluorescence activate cell analyzer (Beckman-Coulter Cytomics FC500) as an indicator of the number of infectious adenoviral particles released from the production cells.

Take `O=C1O[C@H]([C@@H](O)CO)C(O)=C1O` [ascorbic acid]: in experiment [1], the “levels of DNA content in cells” value was “increased levels of DNA”; the “percentage of cells in the S and G2 stages of the cell cycle” value was “a larger percentage of cells had entered the S and G2 stages of the cell cycle”. For the same molecule, the “rate of encapsidation of a gene transfer vector” value in experiment [2] (ascorbic acid added to production cells, conclusion from the studies) is on record as “increased the rate of encapsidation”. Also, in experiment [2] (production cells with ascorbic acid 5 µg/ml, 5 days of production, transduced cells read after 2 days, versus no ascorbic acid), the “number of infected (GFP-expressing) cells after infection with Adenoviral vector containing supernatant” value is “significantly larger number of infected cells”.

Values taken from patent publication US20230036911A1, “CULTURE SYSTEMS FOR THE EFFICIENT PRODUCTION OF GENE TRANSFER VECTORS” (Greffex, Inc., priority 2019, published 2023).
